Measured values: patent US20060111848A1, “Identification and use of cofactor independent phosphoglycerate mutase as a drug target for pathogenic organisms and treatment of the same” (New England Biolabs, Inc., priority 2003, published 2006)

How the values were obtained:
C. elegans iPGM = molecular target: T1, C. elegans iPGM (Caenorhabditis elegans, UniProt G5EFZ1); test: PGM activity, spectrophotometric NADH-coupled assay, recombinant C. elegans iPGM; assay type: biochemical; details: recombinant enzyme
T1 construct: The full-length iPGMs from C. elegans, B. malayi and Wolbachia were overexpressed in E. coli; His tag (C); made in house; host or cells: E. coli ER2566
T1 sequence (G5EFZ1 1-521 isoform G5EFZ1-2): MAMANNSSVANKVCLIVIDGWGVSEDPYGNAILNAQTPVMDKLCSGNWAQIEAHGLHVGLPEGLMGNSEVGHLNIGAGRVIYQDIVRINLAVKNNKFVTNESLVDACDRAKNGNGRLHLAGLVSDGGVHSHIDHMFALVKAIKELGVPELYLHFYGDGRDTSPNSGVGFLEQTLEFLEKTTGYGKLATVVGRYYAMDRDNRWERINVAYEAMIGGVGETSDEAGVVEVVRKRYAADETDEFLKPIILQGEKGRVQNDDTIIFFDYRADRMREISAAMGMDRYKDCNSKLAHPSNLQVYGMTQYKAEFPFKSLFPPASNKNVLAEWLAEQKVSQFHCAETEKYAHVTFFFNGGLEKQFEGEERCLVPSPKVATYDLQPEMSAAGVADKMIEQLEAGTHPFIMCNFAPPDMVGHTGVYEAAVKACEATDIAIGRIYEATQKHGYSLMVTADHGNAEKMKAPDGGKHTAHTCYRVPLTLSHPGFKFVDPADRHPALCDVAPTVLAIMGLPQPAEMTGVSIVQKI
Method: (§1) The purified CeiPGM, WoliPGM and BmiPGM proteins described in Example 4 were assayed for PGM activity and found to be active. Activity was measured in forward and reverse directions using a standard spectrophotometric assay (White and Fothergill-Gilmore, European J. Biochem. 207:709-714 1992)) as outlined in FIG. 9. In the forward reaction (glycolytic), the conversion of 3-PG to 2-PG is measured, whereas in the reverse direction (gluconeogenic), the conversion of 2-PG to 3-PG is assayed. In both cases, PGM activity was determined indirectly by measuring the consumption of NADH, which is monitored at 340 nm. The amount of NADH being oxidized to NAD corresponds to the amount of enzyme product (2-PG in the forward direction or 3-PG in the reverse direction) yielded in the PGM reaction. Reactions were performed at 30° C. for 5 minutes with data collected at 10-second intervals using a Beckman DU 640 spectrophotometer. In the forward reaction, iPGM was added to 1 ml assay buffer (30 mM Tris-HCl pH 7.0, 5 mM MgSO4, 20 mM KCl, 0.15 mM NADH) containing 1 mM ADP, 10 mM 3-PGA (Sigma P8877, Sigma-Aldrich, St. Louis, Mo.), 2.5 U each of enolase (Sigma E6126, EC 4.2.1.11, Sigma-Aldrich, St. Louis, Mo.), pyruvate kinase (Sigma P7768, EC 2.7.1.40, Sigma-Aldrich, St. Louis, Mo.) and lactate dehydrogenase (Sigma L2518; EC 1.1.1.27, Sigma-Aldrich, St. Louis, Mo.). […]

iPGM = details: cited from earlier work
Wolbachia iPGM = test: PGM activity, spectrophotometric NADH-coupled assay, recombinant Wolbachia iPGM; assay type: biochemical; details: recombinant enzyme
Method: as §1

dPGM = details: cited from earlier work
B. malayi iPGM = molecular target: T2, B. malayi iPGM (Brugia malayi, UniProt Q4VWF8); test: PGM activity, spectrophotometric NADH-coupled assay, recombinant B. malayi iPGM; assay type: biochemical; details: recombinant enzyme
T2 construct: The full-length iPGMs from C. elegans, B. malayi and Wolbachia were overexpressed in E. coli; His tag (C); made in house; host or cells: E. coli ER2566
T2 sequence (Q4VWF8 whole entry): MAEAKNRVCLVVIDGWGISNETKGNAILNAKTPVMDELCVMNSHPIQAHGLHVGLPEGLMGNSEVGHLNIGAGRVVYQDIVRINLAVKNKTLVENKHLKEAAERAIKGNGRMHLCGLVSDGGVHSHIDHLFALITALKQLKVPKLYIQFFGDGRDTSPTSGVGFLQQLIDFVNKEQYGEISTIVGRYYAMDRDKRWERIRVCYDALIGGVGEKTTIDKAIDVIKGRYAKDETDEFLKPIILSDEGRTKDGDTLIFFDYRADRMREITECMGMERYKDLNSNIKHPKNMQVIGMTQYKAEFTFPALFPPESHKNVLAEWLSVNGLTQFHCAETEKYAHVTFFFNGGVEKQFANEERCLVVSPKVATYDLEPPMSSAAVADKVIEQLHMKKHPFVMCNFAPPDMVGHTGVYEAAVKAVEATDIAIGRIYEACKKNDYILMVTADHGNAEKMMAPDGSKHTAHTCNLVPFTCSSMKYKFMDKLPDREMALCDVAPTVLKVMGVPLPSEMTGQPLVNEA
Method: as §1

Q: Which results are given for `[O]=[V]([O-])([O-])[O-]` [vanadate]?
A: inhibition of PGM activity (C. elegans iPGM): not inhibited; effect on iPGM activity (iPGM): insensitive; inhibition of PGM activity (Wolbachia iPGM): not inhibited; effect on dPGM activity (dPGM): inhibited; inhibition of PGM activity (B. malayi iPGM): not inhibited
